Read-outs that look alike come from different tables or passages of the source.
Tests used:
HDAC3 = HDAC3 (Homo sapiens, UniProt O15379); assay: HDAC3 fluorogenic activity assay (BPS Bioscience kit); conditions: for decrease of HDAC3 activity / relative percent activity of HDAC3 (activity retained): 100 μM compound; for relative percent activity of HDAC3 (activity retained): compared to absence of inhibitor
Procedure: (§2) HDAC3 and HDAC4 activity assays were performed using fluorogenic assay kits obtained from BPS Bioscience (San Diego, CA, USA) by following the protocol that is supplied by the manufacturer. Briefly, purified enzyme (40 pg/μL HDAC3 or 1.2 pg/μL HDAC4) in a total of 50 μL buffer containing 0.1% BSA was incubated with substrate (20 μM for HDAC3 and 2 μM for HDAC4) at 37 °C for 30 min in a 96-well plate. A fluorescence developer (50 μL) was added and the plate was incubated at room temperature for a further 15 min. The activity of the enzymes in the absence and presence of compounds was measured on a BioTek Cytation 5 plate reader, exciting the samples at 350 nm and measuring emission at 450 nm. Compounds were prepared as 10 mM stocks in DMSO, diluted to 1 mM in 20 mM NaHEPES, 150 mM NaCl, pH 7.4 buffer, and were screened at 100 μM in the assays at least in duplicate. A positive control with 1% DMSO added in lieu of an inhibitor and a negative control without enzyme were also prepared in each assay plate. The negative control was subtracted from all fluorescence values, while the positive control was used as the reference for 100% activity of the enzyme.

HDAC4 = HDAC4 (Homo sapiens, UniProt P56524); assay: HDAC4 fluorogenic activity assay (BPS Bioscience kit); conditions: for relative percent activity of HDAC4 (activity retained): 100 μM compound, compared to absence of inhibitor; for IC50 fold lower for HDAC4 than HDAC3: selectivity HDAC4 over HDAC3 from IC50 values
Sequence of HDAC4 (P56524 whole entry): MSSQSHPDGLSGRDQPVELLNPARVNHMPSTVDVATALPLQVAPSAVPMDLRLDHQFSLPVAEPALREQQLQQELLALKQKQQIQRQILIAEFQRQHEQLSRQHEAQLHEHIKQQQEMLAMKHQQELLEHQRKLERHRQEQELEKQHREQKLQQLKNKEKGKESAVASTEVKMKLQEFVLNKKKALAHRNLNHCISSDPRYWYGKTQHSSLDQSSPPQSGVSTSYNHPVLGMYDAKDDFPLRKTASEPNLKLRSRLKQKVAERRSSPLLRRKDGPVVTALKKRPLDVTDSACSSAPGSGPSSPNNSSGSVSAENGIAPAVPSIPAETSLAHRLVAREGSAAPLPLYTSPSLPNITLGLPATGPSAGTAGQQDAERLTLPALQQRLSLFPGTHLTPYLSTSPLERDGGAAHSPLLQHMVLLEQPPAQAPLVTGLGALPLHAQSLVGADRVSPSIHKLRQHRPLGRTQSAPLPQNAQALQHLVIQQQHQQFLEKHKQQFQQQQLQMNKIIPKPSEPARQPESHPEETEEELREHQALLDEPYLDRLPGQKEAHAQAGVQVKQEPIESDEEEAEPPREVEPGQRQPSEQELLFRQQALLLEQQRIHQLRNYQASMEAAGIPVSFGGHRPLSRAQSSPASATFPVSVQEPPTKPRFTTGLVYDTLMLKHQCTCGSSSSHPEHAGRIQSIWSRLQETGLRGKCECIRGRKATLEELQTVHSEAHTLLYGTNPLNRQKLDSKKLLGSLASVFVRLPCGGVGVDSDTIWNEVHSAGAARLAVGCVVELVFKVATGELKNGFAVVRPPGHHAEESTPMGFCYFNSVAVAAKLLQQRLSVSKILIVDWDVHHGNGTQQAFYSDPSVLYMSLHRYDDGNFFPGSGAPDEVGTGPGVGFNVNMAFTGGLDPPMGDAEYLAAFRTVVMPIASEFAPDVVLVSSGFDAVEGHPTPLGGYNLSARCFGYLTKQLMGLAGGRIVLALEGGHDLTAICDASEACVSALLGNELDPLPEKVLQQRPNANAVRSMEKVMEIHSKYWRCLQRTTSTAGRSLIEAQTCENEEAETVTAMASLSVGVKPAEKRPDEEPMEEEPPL
Procedure: as §2

[1] = tested on: transitional urothelial carcinoma SW780 cell line; assay: MTT cell viability assay, SW780; conditions: Homo sapiens; for IC50 / viability at 100 µM: SW780, 48 h; for IC50: read-out: IC50 (cell viability); for viability at 100 µM: read-out: Relative cell viability
Procedure: (§1) Cell viability assays were determined using Methyl Thiazolyl Tetrazolium (MTT) assay (Travigen, Gaithersburg, MD, USA). A total of 5 × 10^3 SW780 (human transitional urinary bladder cancer cell line) or 1 × 10^4 (human triple-negative breast cancer cell line MDA-MB231, American Type Culture Collection [ATCC], Rockville, MD, USA) in 100 µL of culture media were seeded to each well of 96-well culture plates. These cell lines were chosen based on previous work. The MDA-MB231 and SW780 cell lines were cultured in Dulbecco’s modified Eagle’s medium (DMEM) with 10% or 5% heat-inactivated fetal bovine serum, respectively, 100 U/mL penicillin, and 100 µg/mL streptomycin. Cultures were maintained in 5% CO2 at 37 °C and subcultured every 2–3 days. At 24 h after seeding, cells were treated with various concentrations of potential HDAC inhibiting compounds for 48 h (100 µM for initial screening, […], 1, 10, 100, 250, and 500 µM for the dose–response experiment). Subsequently, 10 µL of MTT reagent was added to each well and incubated for 4 h, followed by the addition of 100 µL of detergent reagent. The plate was incubated overnight. The reduced MTT reagent in cultures was measured at 570 nm by using an ELISA reader (Bio-Tek, Winooski, VT, USA). The IC50 for each compound was calculated from fitted nonlinear regression dose–response curves.

[2] = tested on: human breast carcinoma MDA-MB231 cell line; assay: MTT cell viability assay, MDA-MB231; conditions: for IC50 / viability at 100 µM: MDA-MB-231, 48 h; for IC50: read-out: IC50 (cell viability); for viability at 100 µM: read-out: Relative cell viability
Procedure: as §1

[3] = read-out: IC50 (μM) for HDAC3, highest concentration 500 μM
[4] = read-out: IC50 (μM) for HDAC4, highest concentration 500 μM

Sequence of HDAC3 (O15379 whole entry): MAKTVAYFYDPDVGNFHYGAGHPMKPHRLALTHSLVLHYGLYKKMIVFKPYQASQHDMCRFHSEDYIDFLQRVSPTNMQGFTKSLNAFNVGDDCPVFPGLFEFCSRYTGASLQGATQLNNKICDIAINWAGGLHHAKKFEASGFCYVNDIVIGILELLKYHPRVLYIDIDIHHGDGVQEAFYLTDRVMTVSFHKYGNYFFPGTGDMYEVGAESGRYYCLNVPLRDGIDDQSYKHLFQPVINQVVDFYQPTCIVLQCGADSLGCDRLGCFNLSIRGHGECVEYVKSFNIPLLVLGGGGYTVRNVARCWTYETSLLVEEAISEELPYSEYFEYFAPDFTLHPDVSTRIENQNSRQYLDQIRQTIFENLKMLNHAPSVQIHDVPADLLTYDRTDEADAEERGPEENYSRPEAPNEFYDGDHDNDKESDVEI
Sequence of HDAC3 (Q9Y618 395-489 partner limits assumed): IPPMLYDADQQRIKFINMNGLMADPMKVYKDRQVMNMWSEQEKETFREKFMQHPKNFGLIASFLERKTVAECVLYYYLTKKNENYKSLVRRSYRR

IC50 (HDAC3; [3]) [µM]	Compound	IC50 (HDAC3) [µM]	IC50 [1] [µM]	IC50 ([2]; Homo sapiens) [µM]	viability at 100 µM ([2]; Homo sapiens) [%]	relative percent activity of HDAC4 (activity retained) (HDAC4)	other results
> 500	O=[N+]([O-])c1cc(-c2cccnc2)n[nH]1 [Compound 4135]						IC50 (HDAC4; [4]): 410 ± 240 µM
	COc1cccc2c1cc([N+](=O)[O-])c1c(C(=O)O)cc3c(c12)OCO3 [Compound 11926]	> 500	223 ± 49	126 ± 10	< 60		viability at 100 µM [1]: < 50%; viability at 500 µM ([1]; SW780, read-out: cell viability): 45%; viability at 500 µM ([2]; Homo sapiens, MDA-MB-231, read-out: cell viability): 9%
> 500	CN(C)c1ncnc2c1ncn2-c1ccccc1 [Compound 34488]					unchanged	decrease of HDAC3 activity (HDAC3): 50%
> 500	CC12CCC(C(NC(=S)NN)C1=O)C2(C)C (centres unmarked) [Compound 36425]						IC50 (HDAC4; [4]): 480 ± 260 µM
	CCCn1cnc2c(Sc3c([N+](=O)[O-])ncn3C)nc(N)nc21 [Compound 44584]	> 500	213 ± 13	137 ± 18	< 60	unchanged	decrease of HDAC3 activity (HDAC3): 60%
> 500	O=C(CN1CCOCC1)N1CCOCC1 [Compound 51936]						IC50 (HDAC4; [4]): 550 ± 350 µM
> 500	CCOC(=O)C1C(=O)C(=O)N(C(C)C)C1C(=O)OCC (centres unmarked) [Compound 55172]						
	O=C(Nc1ccc(C2=NCCN2)cc1)c1ccc(Cl)c(C(=O)Nc2ccc(C3=NCCN3)cc2)c1 [Compound 67436]	9.2 ± 5.2	131 ± 26	138 ± 23	< 60	≤ 40%	relative percent activity of HDAC3 (activity retained) (HDAC3): ≤ 40%; HDAC3 IC50 relative to that for HDAC4 (HDAC3; selectivity HDAC3 over HDAC4 from IC50 values): five times lower; IC50 (HDAC4): 47 ± 28 µM; viability at 100 µM [1]: < 50%
> 500	CCOC(=O)C(=CNc1ccccc1Cl)C(=O)OCC [Compound 79887]						
	COc1ccc2c(c1)NP(=S)(Oc1ccccc1)N2 (centres unmarked) [Compound 88402]	210 ± 60				< 40%	relative percent activity of HDAC3 (activity retained) (HDAC3): 75%; IC50 (HDAC4): 100 ± 40 µM; IC50 fold lower for HDAC4 than HDAC3 (HDAC4): at least 2 fold; Relative cell viability ([2]; MDA-MB231, 100 µM compound, 48 h, untreated cells = 100%): did not show activity
25 ± 7	NS(=O)(=O)c1ccc(N=Nc2ccc(=O)[nH]c2O)cc1 [Compound 134199]					≤ 40%	relative percent activity of HDAC3 (activity retained) (HDAC3): ≤ 40%; IC50 (HDAC4; [4]): 33 ± 12 µM; Relative cell viability ([2]; 100 µM): little potency
	NC(=S)NN=Cc1cc(-c2cccc(N)c2)ccn1 [Compound 195327]	> 500	89 ± 48	37 ± 17	< 60	unchanged	decrease of HDAC3 activity (HDAC3): 80%; IC50 (μM) for HDAC3 (HDAC3; highest concentration 500 μM): no inhibition; IC50 (μM) for HDAC4 (HDAC4; highest concentration 500 μM): did not inhibit; viability at 100 µM [1]: < 50%
	CCOC(=O)C(=NO)C1=CSC2=NNC(C)(C)N12 [Compound 299968]	> 500	300 ± 17	113 ± 19	< 60		IC50 (HDAC4): 250 ± 170 µM; IC50 fold lower for HDAC4 than HDAC3 (HDAC4): at least 2 fold
	COc1cc(C2NC(=O)C(C#N)=C(Nc3cccc(C)c3)S2)ccc1O (centres unmarked) [Compound 319435]	> 500					IC50 (HDAC4): 150 ± 50 µM; IC50 fold lower for HDAC4 than HDAC3 (HDAC4): at least 2 fold

Reference: PMC11279411, “Structure-Based Identification of Novel Histone Deacetylase 4 (HDAC4) Inhibitors” (Pharmaceuticals, 2024)
